Measurements reported in ChEMBL document CHEMBL5634091, “Cantharidin analogue alleviates dextran sulfate sodium-induced colitis in mice by inhibiting the activation of NF-κB signaling” (Eur J Med Chem, 2023).
Active and inactive are the calls of the source. The rule behind the calls is not given here.

Columns and labels:
[1] = Inhibition of TNF-alpha induced NF-kappaB activation in HEK293T cells preincubated for 4 hrs and followed by TNF-alpha stimulation and measured after 4 hrs by dual-luciferase reporter assay; format: cell-based; settings: Homo sapiens, HEK-293T
[2] = Toxicity in Kunming mouse assessed as increase in body weight at 667 mg/kg, po measured for 15 days (reference value: 12.38%); format: organism-based; settings: in vivo, 360 h, time 15 day
[3] = Toxicity in Kunming mouse assessed as increase in body weight at 1111 mg/kg, po measured for 15 days (reference value: 12.38%); format: organism-based; settings: in vivo, 360 h, time 15 day
HCT-116 [4] = assay: Inhibition of TNF-alpha induced NF-kB activation in human HCT-116 cells assessed as decrease in phosphorylated p65 protein expression preincubated for 4 hrs and followed TNF-alpha stimulation and measured after 10 mins by Western blot analysis; format: cell-based; settings: dose 12.5-50 µM, time 250.0 min
HCT-116 [5] = assay: Inhibition of TNF-alpha induced NF-kB activation in human HCT-116 cells assessed as decrease in phosphorylated IkappaBalpha protein expression preincubated for 4 hrs and followed TNF-alpha stimulation and measured after 10 mins by Western blot analysis; format: cell-based; settings: dose 12.5-50 µM, time 250.0 min
DLD-1 [6] = assay: Effect on IKK protein expression in TNF-alpha stimulated human DLD-1 cells at 12.5 to 50 uM preincubated for 4 hrs and followed TNF-alpha stimulation and measured after 10 mins by Western blot analysis; format: functional, cell-based; settings: dose 12.5-50 µM, time 250.0 min
HCT-116 [7] = assay: Effect on IKK protein expression in TNF-alpha stimulated human HCT-116 cells at 12.5 to 50 uM preincubated for 4 hrs and followed TNF-alpha stimulation and measured after 10 mins by Western blot analysis; format: functional, cell-based; settings: dose 12.5-50 µM, time 250.0 min
HCT-116 [8] = assay: Effect on NF-kappaB p65 protein expression in TNF-alpha stimulated human HCT-116 cells at 12.5 to 50 uM preincubated for 4 hrs and followed TNF-alpha stimulation and measured after 10 mins by Western blot analysis; format: functional, cell-based; settings: dose 12.5-50 µM, time 250.0 min
DLD-1 [9] = assay: Effect on p38 protein expression in TNF-alpha stimulated human DLD-1 cells at 6.25 to 50 uM preincubated for 4 hrs and followed TNF-alpha stimulation and measured after 10 mins by Western blot analysis; format: functional, cell-based; settings: dose 6.25-50 µM, time 250.0 min
HCT-116 [10] = assay: Upregulation of ERK protein expression in TNF-alpha stimulated human HCT-116 cells at 50 uM preincubated for 4 hrs and followed TNF-alpha stimulation and measured after 10 mins by Western blot analysis; format: functional, cell-based; settings: time 250.0 min
DLD-1 [11] = assay: Upregulation of ERK protein expression in TNF-alpha stimulated human DLD-1 cells at 50 uM preincubated for 4 hrs and followed TNF-alpha stimulation and measured after 10 mins by Western blot analysis; format: functional, cell-based; settings: time 250.0 min
HCT-116 [12] = assay: Activation of MAPK signaling pathway in TNF-alpha stimulated human HCT-116 cells assessed as increase in phospho-ERK protein expression at 50 uM preincubated for 4 hrs and followed TNF-alpha stimulation and measured after 10 mins by Western blot analysis; format: cell-based; settings: filed as activator, time 250.0 min
DLD-1 [13] = assay: Upregulation of JNK protein expression in TNF-alpha stimulated human DLD-1 cells at 50 uM preincubated for 4 hrs and followed TNF-alpha stimulation and measured after 10 mins by Western blot analysis; format: functional, cell-based; settings: time 250.0 min
DLD-1 [14] = assay: Inhibition of TNF-alpha induced MAPK signaling pathway activation in human DLD-1 cells assessed as decrease in phospho-JNK protein expression at 12.5 uM preincubated for 4 hrs and followed TNF-alpha stimulation and measured after 10 mins by Western blot analysis; format: cell-based; settings: time 250.0 min
HCT-116 [15] = assay: Inhibition of TNF-alpha induced MAPK signaling pathway activation in human HCT-116 cells assessed as decrease in phospho-ERK protein expression at 6.25 uM preincubated for 4 hrs and followed TNF-alpha stimulation and measured after 10 mins by Western blot analysis; format: cell-based; settings: time 250.0 min
[16] = Cytotoxicity against human DLD-1 cells assessed as inhibition in cell proliferation; format: toxicity, cell-based
Mus musculus [17] = assay: Anti-inflammatory activity in po dosed C57BL/6 mouse model of DSS-induced acute ulcerative colitis assessed as decrease in TNF-alpha expression in serum administered once a day for 7 days by ELISA; format: functional, organism-based; settings: dose 100-300 mg/kg, time 7.0 day
Mus musculus [18] = assay: Anti-inflammatory activity in C57BL/6 mouse model of DSS-induced acute ulcerative colitis assessed as reduction in submucosal edema at 100 to 300 mg/kg, po administered once a day for 7 days by H and E staining based analysis; format: functional, organism-based; settings: dose 100-300 mg/kg, time 7.0 day
Mus musculus [19] = assay: Anti-inflammatory activity in po dosed C57BL/6 mouse model of DSS-induced acute ulcerative colitis assessed as reduction in IL-6 mRNA expression in colon administered once a day for 7 days by RT-PCR analysis; format: functional, organism-based; settings: dose 100-300 mg/kg, time 7.0 day
Mus musculus [20] = assay: Anti-inflammatory activity in po dosed C57BL/6 mouse model of DSS-induced acute ulcerative colitis assessed as reduction in COX2 mRNA expression in colon administered once a day for 7 days by RT-PCR analysis; format: functional, organism-based; settings: dose 100-300 mg/kg, time 7.0 day
Mus musculus [21] = assay: Anti-inflammatory activity in po dosed C57BL/6 mouse model of DSS-induced acute ulcerative colitis assessed as reduction in TNFalpha mRNA expression in colon administered once a day for 7 days by RT-PCR analysis; format: functional, organism-based; settings: dose 100-300 mg/kg, time 7.0 day
Mus musculus [22] = assay: Anti-inflammatory activity in po dosed C57BL/6 mouse model of DSS-induced acute ulcerative colitis assessed as reduction in IL-1beta mRNA expression in colon administered once a day for 7 days by RT-PCR analysis; format: functional, organism-based; settings: dose 100-300 mg/kg, time 7.0 day
Mus musculus [23] = assay: Anti-inflammatory activity in C57BL/6 mouse model of DSS-induced acute ulcerative colitis assessed as increase in IL-10 mRNA expression in colon at 100 to 300 mg/kg, po administered once a day for 7 days by RT-PCR analysis; format: functional, organism-based; settings: dose 100-300 mg/kg, time 7.0 day
Mus musculus [24] = assay: Anti-inflammatory activity in C57BL/6 mouse model of DSS-induced acute ulcerative colitis assessed as reduction in p65 expression in colon at 100 to 300 mg/kg, po administered once a day for 7 days by immunohistochemical analysis; format: functional, organism-based; settings: dose 100-300 mg/kg, time 7.0 day
[25] = Toxicity in C57BL/6 mouse model of DSS-induced acute ulcerative colitis assessed as effect on heart tissue at 100 to 300 mg/kg, po administered once a day for 7 days by H and E staining based analysis; format: organism-based; settings: in vivo, 168 h, dose 100-300 mg/kg, time 7 day
[26] = Toxicity in C57BL/6 mouse model of DSS-induced acute ulcerative colitis assessed as effect on lung tissue at 100 to 300 mg/kg, po administered once a day for 7 days by H and E staining based analysis; format: organism-based; settings: in vivo, 168 h, dose 100-300 mg/kg, time 7 day
DLD-1 [27] = assay: Cytotoxicity against human DLD-1 cells assessed as induction of stress response at 50 uM; format: toxicity, cell-based; settings: dld-1, 50 µM
Mus musculus [28] = assay: Anti-inflammatory activity in C57BL/6 mouse model of DSS-induced acute ulcerative colitis assessed as reduction in tissue lesions at 100 to 300 mg/kg, po administered once a day for 7 days by H and E staining based analysis; format: functional, organism-based; settings: dose 100-300 mg/kg, time 7.0 day
[29] = Toxicity in Kunming mouse assessed as number of mouse survived at 667 mg/kg, po measured for 15 days; format: organism-based; settings: in vivo, 360 h, time 15 day
[30] = Toxicity in Kunming mouse assessed as number of mouse survived at 1111 mg/kg, po measured for 15 days; format: organism-based; settings: in vivo, 360 h, time 15 day
[31] = Toxicity in Kunming mouse assessed as number of mouse survived at 1852 mg/kg, po measured for 15 days; format: organism-based; settings: in vivo, 360 h, time 15 day

COC(=O)C1=C(C(=O)OC)C2OC1CC2C#Cc1ccc(C)cc1 (stereo unspecified)
IC50 [1]: 16.1 µM | Activity [2]: 19.18% | Activity [3]: 6.01% | inhibition (HCT-116 [4]): Dose-Dependent Effect | inhibition (HCT-116 [5]): Dose-Dependent Effect | Activity (DLD-1 [6]): inactive | Activity (HCT-116 [7]): inactive | Activity (HCT-116 [8]): inactive | Activity (DLD-1 [9]): inactive | Activity (HCT-116 [10]): Active | Activity (DLD-1 [11]): Active | Activity (HCT-116 [12]): Active | Activity (DLD-1 [13]): Active | inhibition (DLD-1 [14]): Active | inhibition (HCT-116 [15]): Active | IC50 [16]: 8.24 µM | Activity (Mus musculus [17]): Dose-Dependent Effect | Activity (Mus musculus [18]): Active | Activity (Mus musculus [19]): Dose-Dependent Effect | Activity (Mus musculus [20]): Dose-Dependent Effect | Activity (Mus musculus [21]): Dose-Dependent Effect | Activity (Mus musculus [22]): Dose-Dependent Effect | Activity (Mus musculus [23]): Active | Activity (Mus musculus [24]): Active | Activity [25]: Non-Toxic | Activity [26]: Non-Toxic | Activity (DLD-1 [27]): Toxic | Activity (Mus musculus [28]): Active | Activity [29]: 0 | Activity [30]: 0 | Activity [31]: 0
